Assay results as given in the supplement of paper PMC10307832.

Legend:
Experiment in all cases: relative viability (nuclei count vs DMSO), 5 days (fraction); higher = more cells survive
NVP-TAE684 + Foretinib = compound: COc1cc(N2CCC(N3CCN(C)CC3)CC2)ccc1Nc1ncc(Cl)c(Nc2ccccc2S(=O)(=O)C(C)C)n1 [NVP-TAE684] + COc1cc2c(Oc3ccc(NC(=O)C4(C(=O)Nc5ccc(F)cc5)CC4)cc3F)ccnc2cc1OCCCN1CCOCC1 [Foretinib] (partner 0.25 µM)
Method in brief: (§1)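 Dosing by pin tool came one day after lung cancer cell lines were seeded in 1536-well plates, using either one drug or a fixed anchor-drug dose plus five library-drug doses (not always all listed) in √10 steps. After 5 days, nuclei were counted on 4× images. Relative viability is treated-well nuclei count divided by vehicle-well nuclei count, and values are medians of duplicate plates.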

CUDC-101 + Crizotinib = compound: C#Cc1cccc(Nc2ncnc3cc(OC)c(OCCCCCCC(=O)NO)cc23)c1 [CUDC-101] + C[C@@H](Oc1cc(-c2cnn(C3CCNCC3)c2)cnc1N)c1c(Cl)ccc(F)c1Cl [Crizotinib] (partner 1 µM)
Method in brief: as §1

Vandetanib + Olaparib = compound: COc1cc2/c(=N/c3ccc(Br)cc3F)nc[nH]c2cc1OCC1CCN(C)CC1 [Vandetanib] + O=C(c1cc(Cc2n[nH]c(=O)c3ccccc23)ccc1F)N1CCN(C(=O)C2CC2)CC1 [Olaparib] (partner 8 µM)
Method in brief: as §1

CUDC-101 + Bortezomib = compound: C#Cc1cccc(Nc2ncnc3cc(OC)c(OCCCCCCC(=O)NO)cc23)c1 [CUDC-101] + CC(C)C[C@H](NC(=O)[C@H](Cc1ccccc1)NC(=O)c1cnccn1)B(O)O [Bortezomib] (partner 0.002 µM)
Method in brief: as §1

Cell Line	relative viability (NVP-TAE684 + Foretinib; first compound 0.2 µM)	relative viability (NVP-TAE684 + Foretinib; first compound 0.6325 µM)	relative viability (NVP-TAE684 + Foretinib; first compound 2 µM)	relative viability (CUDC-101 + Crizotinib; first compound 0.01 µM)	relative viability (CUDC-101 + Crizotinib; first compound 0.03162 µM)	relative viability (CUDC-101 + Crizotinib; first compound 0.1 µM)	relative viability (CUDC-101 + Crizotinib; first compound 0.3162 µM)	relative viability (CUDC-101 + Crizotinib; first compound 1 µM)	relative viability (Vandetanib + Olaparib; first compound 0.02 µM)	relative viability (Vandetanib + Olaparib; first compound 0.06325 µM)	relative viability (Vandetanib + Olaparib; first compound 0.2 µM)	relative viability (Vandetanib + Olaparib; first compound 0.6325 µM)	relative viability (Vandetanib + Olaparib; first compound 2 µM)	relative viability (CUDC-101 + Bortezomib; first compound 0.01 µM)	relative viability (CUDC-101 + Bortezomib; first compound 0.03162 µM)	relative viability (CUDC-101 + Bortezomib; first compound 0.1 µM)	relative viability (CUDC-101 + Bortezomib; first compound 0.3162 µM)	relative viability (CUDC-101 + Bortezomib; first compound 1 µM)
NCI-H661	1.19	1.05	0.779	1.07	1.08	0.954	1.03	0.943	0.793	0.696	0.726	0.759	0.735	1.09	0.664	0.892	0.928	0.8
NCI-H727	0.855	0.818	0.38	0.913	0.931	0.738	0.647	0.361	0.727	0.68	0.662	0.739	0.621	0.823	0.967	0.775	0.993	0.397
NCI-H838	0.971	1.05	0.628	0.87	0.74	0.832	0.669	0.382	0.773	0.769	0.776	0.764	0.74	0.872	0.728	0.879	1.25	0.533
NCI-H1299	1.16	1.14	1.08	0.926	0.957	0.998	0.837	0.934	0.983	0.928	0.924	0.933	0.981	1.05	0.997	1.07	1.05	1.03
NCI-H1355	0.9	0.989	0.428	1.06	1.02	1.15	1.07	0.906	0.754	0.665	0.734	0.825	0.684	1.31	1.17	1.24	1.18	1.03
NCI-H1437	1.25	1.27	1.29	1.13	0.862	0.963	0.941	0.916	0.588	0.667	0.643	0.615	0.612	0.547	0.483	0.398	0.693	0.284
NCI-H1650	1.06	1.14	0.556	0.859	0.782	0.942	0.796	0.595	0.753	0.827	0.756	0.792	0.572	0.179	0.216	0.202	0.194	0.163
NCI-H1651	0.802	0.883	0.774	0.91	0.803	0.91	0.934	0.813	0.176	0.179	0.17	0.165	0.19	1.04	0.946	0.957	0.912	0.921
